Patent US20140271716A1, “Intra-testicular Injection of Immunogens” (priority 2013, published 2014)

Experiments:
[1] = Zinc level in blood after intramuscular injection of zinc acetate; settings: pigs, intramuscular 30 mg/kg
[2] = Zinc level in blood after intra-testicular injection of zinc acetate; settings: pigs; for Zinc Concentration in blood: intra-testicular 0.5 ml (74 mg/ml) each testis

## CC(=O)[O-].CC(=O)[O-].[Zn+2] [zinc acetate]
[1]; 0 Min (physiological level)
  Zinc Concentration in blood: 45.3 μ mol/L
[1]; 30 min
  Zinc Concentration in blood: 194.08 μ mol/L
[1]; 1 hr.
  Zinc Concentration in blood: 76.17 μ mol/L
[1]; 2 hr.
  Zinc Concentration in blood: 67.4 μ mol/L
[1]; 3 hr.
  Zinc Concentration in blood: 65.22 μ mol/L
[1]; 4 hr.
  Zinc Concentration in blood: 62.8 μ mol/L
[1]; 6 hr.
  Zinc Concentration in blood: 61.6 μ mol/L
[1]; 8 hr.
  Zinc Concentration in blood: 60.8 μ mol/L
[1]; 12 hr.
  Zinc Concentration in blood: 54.3 μ mol/L
[1]; 16 hr.
  Zinc Concentration in blood: 48.7 μ mol/L
[1]; 24 hr.
  Zinc Concentration in blood: 47.3 μ mol/L
[1]; 36 hr.
  Zinc Concentration in blood: 44.5 μ mol/L
[1]; 48 hr.
  Zinc Concentration in blood: 44.2 μ mol/L
[2]; intra-testicular
  mean residence time: ~60 h
  time of second absorption phase after injection: 24 h
[2]; 0 Min (taken as zero)
  Zinc Concentration in blood: 0 μ mol/L
[2]; 30 Min
  Zinc Concentration in blood: 8.44 μ mol/L
[2]; 1 hr.
  Zinc Concentration in blood: 7.49 μ mol/L
[2]; 2 hr.
  Zinc Concentration in blood: 5.65 μ mol/L
[2]; 3 hr.
  Zinc Concentration in blood: 5.27 μ mol/L
[2]; 4 hr.
  Zinc Concentration in blood: 4.96 μ mol/L
[2]; 6 hr.
  Zinc Concentration in blood: 4.06 μ mol/L
[2]; 8 hr.
  Zinc Concentration in blood: 4.43 μ mol/L
[2]; 12 hr.
  Zinc Concentration in blood: 3.87 μ mol/L
[2]; 24 hr.
  Zinc Concentration in blood: 4.43 μ mol/L
[2]; 48 hr.
  Zinc Concentration in blood: 3.11 μ mol/L
[2]; 72 hr.
  Zinc Concentration in blood: −0.36 μ mol/L
[2]; 96 hr.
  Zinc Concentration in blood: −0.29 μ mol/L
